# Assay results: US20250296938A1, “Compounds that Interact with the Ras Superfamily for the Treatment of Cancers, Inflammatory Diseases, Rasopathies, and Fibrotic Disease” (SHY Therapeutics, LLC, priority 2018, published 2025)
# Where two headings read alike, the source gives them in different places.
# Key:
# Assay in all cases: Ras GTP binding domain inhibition assay (Cy3-GTP/Cy5-GTP competition)
# KRas G12C mutant = system: KRas G12C mutant; design: species or system human; conditions: 20 μM
# Protocol: (§1) The following method was developed as specific assay for the following proteins: KRas wild type, KRas Q61H mutant, KRas G12C mutant, KRas G12D mutant, HRas wild type, Rac-1, and Rho-A.
# (§2) • 25 mM Tris-HCl, pH 7.4 • 27 mM KCl • 137 mM NaCl • 1 mM MgCl2 • 1 mM DTT
# (§3) • 50 mM Tris-HCl, pH 7.0 • 1 mM MgCl2 • 1 mM DTT
# (§4) The small GTPases proteins: KRas wild type. KRas Q61H mutant, KRas G12C mutant, KRas G12D mutants, HRas wild type, Rac-1, and Rho-A were expressed as His-tagged proteins. In addition, the Guanosine nucleotide Exchange Factor (GEF) Sos protein (residues 556-1049) was expressed as a His-tagged protein. In cells, the guanine nucleotide exchange factor Sos protein promotes activation of Ras proteins by stimulating an exchange of GDP for GTP. The inclusion of Sos to the Ras GTP binding domain inhibition assay may be considered as an alternative representation of physiological cellular conditions for evaluating the inhibitory activity of some of the tested small molecules.
# (§5) For the assay, all purified small GTPases proteins were diluted in Buffer-I or Buffer-II to a final concentration of 10-30 μg/mL. 200 μL of each diluted protein was added to a nickel-coated 96-well plate and incubated overnight at 4° C. Then the protein solution was discarded and 200 μL of Buffer-I or Buffer-II was added to each well in the presence of 1% DMSO. Compounds to be tested were added to the protein-coated wells at final concentration of 20 μM, and incubated for 3 hours at room temperature with and without […] of Sos added to the final hour of the incubation. When performing IC50 measurements a serial dilution of all tested concentrations was added. Then Cy3-GTP or Cy5-GTP was added to each well to a final concentration of 100 nM. The labeled GTP was incubated for 45 minutes at room temperature. Following GTP incubation, wells were washed 3× in Buffer-I or Buffer-II and 200 μL of Buffer-I or Buffer-II was added to each well. Following washes, the amount of bound labeled-GTP was measured using a SpectraMax M3 (Molecular Devices).
# KRas wild type = system: KRas wild type; design: species or system human; conditions: 20 μM; for KRas wild type: % inh.: without SOS; for KRas wild type % inh.: without SOS (Table 7A)
# Protocol: as §1, §2, §3, §4, §5
# KRas Q61H mutant = system: KRas Q61H mutant; design: species or system human; conditions: 20 μM
# Protocol: as §1, §2, §3, §4, §5
# KRas G12D mutant = target: T1, KRas G12D mutant (Homo sapiens, UniProt P01116, G12D); conditions: 20 μM
# T1 construct: fused on or other part: His tag, used for capture on nickel-coated plates
# Protocol: as §1, §2, §3, §4, §5
# [1] = with SOS, read-out: KRas G-12D mutant + SOS: % inh.
# [2] = without SOS, read-out: KRas G12D mutant: % inh.
# [3] = with SOS (Table 7A), read-out: KRas G12D mutant + SOS: % inh.
# [4] = without SOS (Table 7A), read-out: KRas G12D mutant: % inh.
SMILES,KRas G12C mutant + SOS: % inh. (KRas G12C mutant; with SOS),KRas G12C mutant: % inh. (KRas G12C mutant; without SOS),KRas wild type + SOS: % inh. (KRas wild type; with SOS),KRas wild type: % inh. (KRas wild type),KRas Q61H mutant + SOS: % inh. (KRas Q61H mutant; with SOS),KRas Q61H mutant: % inh. (KRas Q61H mutant; without SOS),inhibition at 20 µM (KRas G12D mutant; [1]) [%],inhibition at 20 µM (KRas G12D mutant; [2]) [%],KRas G12C mutant + SOS: % inh. (KRas G12C mutant; with SOS (Table 7A)),KRas G12C mutant: % inh. (KRas G12C mutant; without SOS (Table 7A)),KRas wild type + SOS: % inh. (KRas wild type; with SOS (Table 7A)),KRas wild type % inh. (KRas wild type),KRas Q61H mutant + SOS: % inh. (KRas Q61H mutant; with SOS (Table 7A)),KRas Q61H mutant: % inh. (KRas Q61H mutant; without SOS (Table 7A)),inhibition at 20 µM (KRas G12D mutant; [3]) [%],inhibition at 20 µM (KRas G12D mutant; [4]) [%]
COC1CCN(c2nc(-c3nccn3C)nc3sc(-c4ccnn4C)c(-c4ccccc4)c23)C1.Cl (stereo not shown),C (51-75% inhibition),C (51-75% inhibition),C (51-75% inhibition),B (26-50% inhibition),C (51-75% inhibition),B (26-50% inhibition),51 to 75,51 to 75,,,,,,,,
CO[C@H]1C[C@@H](Nc2nc(-c3nccn3C)nc3sc(-c4ccn(C)n4)c(-c4ccccc4)c23)C1.Cl,,,,,,,,,D (76-100% inhibition),C (51-75% inhibition),D (76-100% inhibition),C (51-75% inhibition),D (76-100% inhibition),C (51-75% inhibition),51 to 75,26 to 50
Cn1ccc(-c2sc3nc(-c4nccn4C)nc(N[C@@H]4CC[C@H](O)C4)c3c2-c2ccccc2)n1 (racemic) [drawing 909],,,,,,,,,A (1-25% inhibition),A (1-25% inhibition),A (1-25% inhibition),A (1-25% inhibition),0 (0% inhibition),A (1-25% inhibition),0,0
COCCn1cc(Nc2nc(-c3ccccn3)nc(OC)c2OC)cn1 [drawing 793],A (1-25% inhibition),A (1-25% inhibition),A (1-25% inhibition),0 (0% inhibition),A (1-25% inhibition),0 (0% inhibition),1 to 25,1 to 25,,,,,,,,
COc1nc(-c2ccccn2)nc(Nc2cnn(C)c2)c1OC [drawing 794],A (1-25% inhibition),0 (0% inhibition),0 (0% inhibition),A (1-25% inhibition),A (1-25% inhibition),0 (0% inhibition),0,0,,,,,,,,
COCCNc1nc(-c2cn(C)cn2)nc2sc(-c3cc(OC)ccc3Cl)c(-c3ccc(OC)cc3)c12 [drawing 795],D (76-100% inhibition),B (26-50% inhibition),D (76-100% inhibition),B (26-50% inhibition),D (76-100% inhibition),B (26-50% inhibition),26 to 50,26 to 50,,,,,,,,
COC1CCN(c2nc(-c3nccn3C)nn3cc(-c4ccccc4)c(-c4ccccc4)c23)C1 (stereo not shown) [drawing 796],B (26-50% inhibition),A (1-25% inhibition),A (1-25% inhibition),B (26-50% inhibition),B (26-50% inhibition),B (26-50% inhibition),1 to 25,26 to 50,,,,,,,,
COCCNc1nc(-c2cn(C)cn2)nc2sc(-c3cccc(OC)c3Cl)c(-c3ccc(OC)cc3)c12 [drawing 797],D (76-100% inhibition),B (26-50% inhibition),D (76-100% inhibition),C (51-75% inhibition),D (76-100% inhibition),C (51-75% inhibition),26 to 50,26 to 50,,,,,,,,
